Results taken from ChEMBL document CHEMBL3885861, “Open TG-GATES”.

Organism: Rattus norvegicus
Test: Open TG-GATES - Regimen: Daily Repeat
Assay type: toxicity, organism-based, Sprague-Dawley
Design: regimen Daily Repeat, gender Male, age 6 weeks
Conditions: in vivo, po, 150 mg/kg, route gavage, dose level High; for APTT / Bas / Eos / Fbg / Hb / Ht / Lym / MCH / MCHC / MCV / Mono / Neu / PT / Plat / RBC / Ret / WBC: tissue Blood; for KIDNEY_L / KIDNEY_R / KIDNEY_TOTAL: tissue Kidney; for LIVER: tissue Liver; for A/G / ALP / ALT / AST / BUN / CRE / Ca / Cl / DBIL / GLC / IP / K / LDH / Na / PL / RALB / TBIL / TC / TG / TP / gamma-GTP: tissue Plasma

`Nc1nc(N)c2nc(-c3ccccc3)c(N)nc2n1` was tested, and the TERMINAL_BW (72 h, time 3 day) was 243.7 g, the APTT (72 h, time 3 day) was 16.1 s and the Bas (72 h, time 3 day) was 0%. For the same compound, the Eos (72 h, time 3 day) was 1%, the Fbg (72 h, time 3 day) was 366.6 mg/dL and the Hb (72 h, time 3 day) was 13.8 g/dL. It also gave a Ht (72 h, time 3 day) of 40.7%, a Lym (72 h, time 3 day) of 76.6% and an MCH (72 h, time 3 day) of 21 pg. It also gave an MCHC (72 h, time 3 day) of 33.8%, an MCV (72 h, time 3 day) of 62 fL and a Mono (72 h, time 3 day) of 2.8%. The Neu (72 h, time 3 day) was 18.8%, the PT (72 h, time 3 day) was 14 s and the Plat (72 h, time 3 day) was 131.8 x10_4/uL. For the same compound, the RBC (72 h, time 3 day) was 657.6 x10_4/ul, the Ret (72 h, time 3 day) was 5.1% and the WBC (72 h, time 3 day) was 90.9 x10_2/uL. It also gave a KIDNEY_L (72 h, time 3 day) of 1 g, a KIDNEY_R (72 h, time 3 day) of 1.1 g and a KIDNEY_TOTAL (72 h, time 3 day) of 2.1 g. It also gave an LIVER (72 h, time 3 day) of 11.3 g, an A/G (72 h, time 3 day) of 0.9 and an ALP (72 h, time 3 day) of 1846.8 IU/L. For the same compound, the ALT (72 h, time 3 day) was 44 IU/L, the AST (72 h, time 3 day) was 67.2 IU/L and the BUN (72 h, time 3 day) was 17.6 mg/dL. The CRE (72 h, time 3 day) was 0.2 mg/dL, the Ca (72 h, time 3 day) was 11.1 mg/dL and the Cl (72 h, time 3 day) was 105.8 meq/L. The DBIL (72 h, time 3 day) was 0.008 mg/dL, the GLC (72 h, time 3 day) was 180.6 mg/dL and the IP (72 h, time 3 day) was 7.9 mg/dL. It also gave a K (72 h, time 3 day) of 3.9 meq/L, an LDH (72 h, time 3 day) of 59 IU/L and a Na (72 h, time 3 day) of 143.6 meq/L. It also gave a PL (72 h, time 3 day) of 171 mg/dL, an RALB (72 h, time 3 day) of 2.6 g/dL and a TBIL (72 h, time 3 day) of 0.032 mg/dL. The TC (72 h, time 3 day) was 90.6 mg/dL, the TG (72 h, time 3 day) was 120.8 mg/dL and the TP (72 h, time 3 day) was 5.6 g/dL. The gamma-GTP (72 h, time 3 day) was 1 IU/L, the TERMINAL_BW ([…], time 7 day) was 274.8 g and the TERMINAL_BW ([…], time 14 day) was 323.6 g. The TERMINAL_BW ([…], time 28 day) was 378.7 g, the APTT ([…], time 7 day) was 16.4 s and the Bas ([…], time 7 day) was 0.2%. For the same compound, the Eos ([…], time 7 day) was 1%, the Fbg ([…], time 7 day) was 354.2 mg/dL and the Hb ([…], time 7 day) was 13.5 g/dL. It also gave a Ht ([…], time 7 day) of 41.1%, a Lym ([…], time 7 day) of 78.2% and an MCH ([…], time 7 day) of 20.1 pg. For the same compound, the MCHC ([…], time 7 day) was 32.8%, the MCV ([…], time 7 day) was 61.2 fL and the Mono ([…], time 7 day) was 2.4%. For the same compound, the Neu ([…], time 7 day) was 18.2%, the PT ([…], time 7 day) was 14.1 s and the Plat ([…], time 7 day) was 132.7 x10_4/uL. It also gave an RBC ([…], time 7 day) of 672.4 x10_4/ul, a Ret ([…], time 7 day) of 5.4% and a WBC ([…], time 7 day) of 114.8 x10_2/uL. For the same compound, the APTT ([…], time 14 day) was 20.2 s, the Bas ([…], time 14 day) was 0% and the Eos ([…], time 14 day) was 1%. For the same compound, the Fbg ([…], time 14 day) was 329.6 mg/dL, the Hb ([…], time 14 day) was 14.2 g/dL and the Ht ([…], time 14 day) was 43.2%. It also gave a Lym ([…], time 14 day) of 77.4%, an MCH ([…], time 14 day) of 19.5 pg and an MCHC ([…], time 14 day) of 33%. It also gave an MCV ([…], time 14 day) of 59.1 fL, a Mono ([…], time 14 day) of 2.2% and a Neu ([…], time 14 day) of 18.8%. It also gave a PT ([…], time 14 day) of 13 s, a Plat ([…], time 14 day) of 113.5 x10_4/uL and an RBC ([…], time 14 day) of 730.6 x10_4/ul. It also gave a Ret ([…], time 14 day) of 3.3%, a WBC ([…], time 14 day) of 94.3 x10_2/uL and an APTT ([…], time 28 day) of 18.6 s. For the same compound, the Bas ([…], time 28 day) was 0.4%, the Eos ([…], time 28 day) was 1% and the Fbg ([…], time 28 day) was 320 mg/dL. For the same compound, the Hb ([…], time 28 day) was 15 g/dL, the Ht ([…], time 28 day) was 44.1% and the Lym ([…], time 28 day) was 78.8%. It also gave an MCH ([…], time 28 day) of 18.6 pg, an MCHC ([…], time 28 day) of 33.9% and an MCV ([…], time 28 day) of 54.9 fL. For the same compound, the Mono ([…], time 28 day) was 2.2%, the Neu ([…], time 28 day) was 16.8% and the PT ([…], time 28 day) was 13.3 s. It also gave a Plat ([…], time 28 day) of 127.8 x10_4/uL, an RBC ([…], time 28 day) of 803.2 x10_4/ul and a Ret ([…], time 28 day) of 2.1%. The WBC ([…], time 28 day) was 110.6 x10_2/uL, the KIDNEY_L ([…], time 7 day) was 1.3 g and the KIDNEY_R ([…], time 7 day) was 1.3 g. The KIDNEY_TOTAL ([…], time 7 day) was 2.6 g, the KIDNEY_L ([…], time 14 day) was 1.4 g and the KIDNEY_R ([…], time 14 day) was 1.4 g. The KIDNEY_TOTAL ([…], time 14 day) was 2.8 g, the KIDNEY_L ([…], time 28 day) was 1.7 g and the KIDNEY_R ([…], time 28 day) was 1.7 g. The KIDNEY_TOTAL ([…], time 28 day) was 3.4 g, the LIVER ([…], time 7 day) was 12.6 g and the LIVER ([…], time 14 day) was 13.2 g. The LIVER ([…], time 28 day) was 14.1 g, the A/G ([…], time 7 day) was 0.9 and the ALP ([…], time 7 day) was 1286 IU/L. It also gave an ALT ([…], time 7 day) of 41.2 IU/L, an AST ([…], time 7 day) of 63.2 IU/L and a BUN ([…], time 7 day) of 18.8 mg/dL. It also gave a CRE ([…], time 7 day) of 0.2 mg/dL, a Ca ([…], time 7 day) of 11 mg/dL and a Cl ([…], time 7 day) of 104.2 meq/L. For the same compound, the DBIL ([…], time 7 day) was 0.014 mg/dL, the GLC ([…], time 7 day) was 188 mg/dL and the IP ([…], time 7 day) was 7.7 mg/dL. For the same compound, the K ([…], time 7 day) was 4 meq/L, the LDH ([…], time 7 day) was 62 IU/L and the Na ([…], time 7 day) was 143 meq/L. The PL ([…], time 7 day) was 149.6 mg/dL, the RALB ([…], time 7 day) was 2.6 g/dL and the TBIL ([…], time 7 day) was 0.072 mg/dL. It also gave a TC ([…], time 7 day) of 77 mg/dL, a TG ([…], time 7 day) of 126.8 mg/dL and a TP ([…], time 7 day) of 5.6 g/dL. The gamma-GTP ([…], time 7 day) was 1.2 IU/L, the A/G ([…], time 14 day) was 0.8 and the ALP ([…], time 14 day) was 1273.4 IU/L. For the same compound, the ALT ([…], time 14 day) was 41.6 IU/L, the AST ([…], time 14 day) was 66.4 IU/L and the BUN ([…], time 14 day) was 21.4 mg/dL. It also gave a CRE ([…], time 14 day) of 0.3 mg/dL, a Ca ([…], time 14 day) of 10.4 mg/dL and a Cl ([…], time 14 day) of 105.8 meq/L. For the same compound, the DBIL ([…], time 14 day) was 0.012 mg/dL, the GLC ([…], time 14 day) was 185.2 mg/dL and the IP ([…], time 14 day) was 7.5 mg/dL. It also gave a K ([…], time 14 day) of 3.7 meq/L, an LDH ([…], time 14 day) of 58.2 IU/L and a Na ([…], time 14 day) of 145 meq/L. It also gave a PL ([…], time 14 day) of 143.2 mg/dL, an RALB ([…], time 14 day) of 2.7 g/dL and a TBIL ([…], time 14 day) of 0.07 mg/dL. It also gave a TC ([…], time 14 day) of 75 mg/dL, a TG ([…], time 14 day) of 101.6 mg/dL and a TP ([…], time 14 day) of 5.9 g/dL. For the same compound, the gamma-GTP ([…], time 14 day) was 1.2 IU/L, the A/G ([…], time 28 day) was 0.8 and the ALP ([…], time 28 day) was 1120 IU/L. It also gave an ALT ([…], time 28 day) of 41.8 IU/L, an AST ([…], time 28 day) of 65.6 IU/L and a BUN ([…], time 28 day) of 21.4 mg/dL. It also gave a CRE ([…], time 28 day) of 0.3 mg/dL, a Ca ([…], time 28 day) of 10.7 mg/dL and a Cl ([…], time 28 day) of 106 meq/L. It also gave a DBIL ([…], time 28 day) of 0.008 mg/dL, a GLC ([…], time 28 day) of 178.2 mg/dL and an IP ([…], time 28 day) of 6.7 mg/dL. The K ([…], time 28 day) was 3.7 meq/L, the LDH ([…], time 28 day) was 44.6 IU/L and the Na ([…], time 28 day) was 144.8 meq/L. The PL ([…], time 28 day) was 160.4 mg/dL, the RALB ([…], time 28 day) was 2.7 g/dL and the TBIL ([…], time 28 day) was 0.064 mg/dL. The TC ([…], time 28 day) was 85.2 mg/dL, the TG ([…], time 28 day) was 106.2 mg/dL and the TP ([…], time 28 day) was 6.1 g/dL. For the same compound, the gamma-GTP ([…], time 28 day) was 1.4 IU/L.
